For 14 molecules, IC50 results are on record in patent US20240148821A1, “PHARMACEUTICAL USE OF CYCLIC PEPTIDE COMPOUND” (CHUGAI SEIYAKU KABUSHIKI KAISHA, priority 2021, published 2024).

Bridge positions count the residues as written; N and C are the ends. Square brackets hold non-standard residues; d marks the D form. Peptide text beside a SMILES is read from it. * marks the point of attachment. hPhe(3-Cl-4-CF3) = N[C@@H](CCc1ccc(C(F)(F)F)c(Cl)c1)C(=O)O; hPhe(3-F,4-CF3) = N[C@@H](CCc1ccc(C(F)(F)F)c(F)c1)C(=O)O; NMePhe(3-Cl) = CN[C@@H](Cc1cccc(Cl)c1)C(=O)O; NMePhe(4-Cl) = CN[C@@H](Cc1ccc(Cl)cc1)C(=O)O; NMePhe(4-Me) = CN[C@@H](Cc1ccc(C)cc1)C(=O)O; NMeNle(6-CHF2) = CN[C@@H](CCCCC(F)F)C(=O)O; NMeNva(5,5-F2) = CN[C@@H](CCC(F)F)C(=O)O; NMeGly(cPent) = CN[C@H](C(=O)O)C1CCCC1; Phe(3-I) = N[C@@H](Cc1cccc(I)c1)C(=O)O; Phe(4-F) = N[C@@H](Cc1ccc(F)cc1)C(=O)O; NMeCha = CN[C@@H](CC1CCCCC1)C(=O)O; NMeChg = CN[C@H](C(=O)O)C1CCCCC1; NMeF = CN[C@@H](Cc1ccccc1)C(=O)O; NMeD = CN[C@@H](CC(=O)O)C(=O)O; NMeL = CN[C@@H](CC(C)C)C(=O)O; NMeV = CN[C@H](C(=O)O)C(C)C; d(β3hA) = C[C@@H](N)CC(=O)O; N(iPr)Gly = CC(C)NCC(=O)O; Pip = O=C(O)[C@@H]1CCCCN1; NMeA = CN[C@@H](C)C(=O)O; NMeAib = CNC(C)(C)C(=O)O; Nle = CCCC[C@H](N)C(=O)O; Piperidide = C1CCN(*)CC1; Pyrrolidide = C1CCN(*)C1; dNMeA = CN[C@H](C)C(=O)O; Ac5c = NC1(C(=O)O)CCCC1; Aze = O=C(O)[C@@H]1CCN1; Nva = CCC[C@H](N)C(=O)O; Aib = CC(C)(N)C(=O)O; Sar = CNCC(=O)O

In this assay the test system is Human pancreatic cancer cell line AsPC-1 (G12D mutation Kras). As to the kind of experiment: AsPC-1 cell growth inhibition (AsPC-1 CGI). It counts as cell-based. The settings on record: read-out: AsPC-1 cell growth inhibition, 50% growth inhibitory concentration (IC50 value); 96 hours, CellTiter-Glo, values classified in ranges. (In general: Cellular ATP, detected with luciferase, serves as a proxy for viable cell number.)
Description: Test compounds were serially dilated with dimethyl sulfoxide, and 200 nL was then dispensed to a U-bottom 96-well plate using Labcyte Echo. […] The cell suspension was dispensed to a. plate containing a test compound at 100 μL per well and incubated at 37° C. in a 5% carbon dioxide gas incubator. 96 hours later, 80 μL of CellTiter-Glo (Promega) was added to each well and fluorescence was measured.
Regarding `CC[C@H](C)[C@@H]1NC(=O)[C@H](C)N(C)C(=O)C[C@@H](C)NC(=O)[C@H](C2CCCC2)N(C)C(=O)C2(CCCC2)NC(=O)[C@@H]2CCCN2C(=O)[C@H](CCc2ccc(C(F)(F)F)c(Cl)c2)NC(=O)CN(C)C(=O)[C@H](Cc2cccc(Cl)c2)N(C)C(=O)[C@@H]2CCCN2C(=O)CN(C)C1=O` [Compound 186] (cyclo([Ac5c][NMeGly(cPent)][d(β3hA)][NMeA]I[Sar]P[NMePhe(3-Cl)][Sar][hPhe(3-Cl-4-CF3)]P)), the IC50 is greater than 500 nM. With `CCCC[C@@H]1NC(=O)[C@H](Cc2ccc(F)cc2)NC(=O)CN(C)C(=O)[C@H](Cc2ccc(Cl)cc2)N(C)C(=O)CN(C)C(=O)CN(C)C(=O)[C@H]([C@@H](C)CC)NC(=O)[C@H](CC(C)C)N(C)C(=O)C[C@@H](C(=O)N2CCCCC2)N(C)C(=O)[C@H](CC(C)C)NC(=O)C(C)(C)N(C)C1=O` [Compound 1305] ([NMeL]I[Sar][Sar][NMePhe(4-Cl)][Sar][Phe(4-F)][Nle][NMeAib]L[NMeD]-Piperidide; lactam N-11) the figure was greater than 500 nM. Turning to `CCC[C@@H]1NC(=O)[C@H](CC(C)C)N(C)C(=O)C[C@@H](C(=O)N2CCCCC2)N(C)C(=O)[C@H](C2CCCCC2)N(C)C(=O)C2(CCCC2)NC(=O)[C@@H]2CCCN2C(=O)[C@H](CCc2ccc(C(F)(F)F)c(Cl)c2)NC(=O)CN(C)C(=O)[C@H](CC2CCCCC2)N(C)C(=O)CN(C)C(=O)CN(C)C1=O` [Compound 495] ([NMeL][Nva][Sar][Sar][NMeCha][Sar][hPhe(3-Cl-4-CF3)]P[Ac5c][NMeChg][NMeD]-Piperidide; lactam N-11), the IC50 is greater than 500 nM. For `CC[C@H](C)[C@@H]1NC(=O)[C@H](CC(C)C)N(C)C(=O)C[C@@H](C(=O)N2CCCCC2)N(C)C(=O)[C@H](CC(C)C)NC(=O)C(C)(C)N(C)C(=O)[C@H](Cc2ccc(OC)cc2)NC(=O)[C@H](Cc2cccc(I)c2)NC(=O)CN(C)C(=O)[C@H](Cc2ccc(C)cc2)N(C)C(=O)[C@@H]2CCN2C(=O)CN(C)C1=O` [Compound 188] ([NMeL]I[Sar][Aze][NMePhe(4-Me)][Sar][Phe(3-I)]Y(Me)[NMeAib]L[NMeD]-Piperidide; lactam N-11) the value was greater than 500 nM; for `CC[C@H](C)[C@@H]1NC(=O)[C@@H]2CCCCN2C(=O)C[C@@H](C(=O)N2CCCCC2)N(C)C(=O)[C@H](C(C)C)N(C)C(=O)C2(CCCC2)NC(=O)[C@@H]2CCCN2C(=O)[C@H](CCc2ccc(C(F)(F)F)c(F)c2)NC(=O)CN(C)C(=O)[C@H](CC2CCCCC2)N(C)C(=O)CN(C)C(=O)CN(C)C1=O` [Compound 670] ([Pip]I[Sar][Sar][NMeCha][Sar][hPhe(3-F,4-CF3)]P[Ac5c][NMeV][NMeD]-Piperidide; lactam N-11), greater than 500 nM. For the molecule `CC[C@H](C)[C@@H]1NC(=O)[C@H](C)N(C)C(=O)C[C@@H](C)NC(=O)[C@H](C(C)C)N(C)C(=O)C2(CCCC2)NC(=O)[C@@H]2CCCN2C(=O)[C@H](CCc2ccc(C(F)(F)F)c(Cl)c2)NC(=O)[C@H]2CCCN2C(=O)[C@H](Cc2ccccc2)N(C)C(=O)[C@@H]2CCCN2C(=O)CN(C)C1=O` [Compound 1730] (cyclo([Ac5c][NMeV][d(β3hA)][NMeA]I[Sar]P[NMeF][dP][hPhe(3-Cl-4-CF3)]P)), the IC50 is greater than 500 nM. Turning to `CC[C@H](C)[C@@H]1NC(=O)[C@H](CC(C)C)N(C)C(=O)C[C@@H](C)NC(=O)[C@H](C)N(C)C(=O)C2(CCCC2)NC(=O)[C@@H]2CCCN2C(=O)[C@H](CCc2ccc(C(F)(F)F)c(Cl)c2)NC(=O)CN(C)C(=O)[C@H](Cc2ccc(C)cc2)N(C)C(=O)[C@@H]2CCN2C(=O)[C@H](C)N(C)C1=O` [Compound 1239] (cyclo([Ac5c][NMeA][d(β3hA)][NMeL]I[NMeA][Aze][NMePhe(4-Me)][Sar][hPhe(3-Cl-4-CF3)]P)), the IC50 was greater than 500 nM. With `CC[C@H](C)[C@@H]1NC(=O)[C@H](CC(C)C)N(C)C(=O)C[C@@H](C(=O)N2CCCCC2)N(C)C(=O)[C@H](CCC(F)F)N(C)C(=O)C2(CCCC2)NC(=O)[C@@H]2CCCN2C(=O)[C@H](CCc2ccc(C(F)(F)F)c(Cl)c2)NC(=O)CN(C)C(=O)[C@H](CC2CCCCC2)N(C)C(=O)CN(C)C(=O)CN(C)C1=O` [Compound 1782] ([NMeL]I[Sar][Sar][NMeCha][Sar][hPhe(3-Cl-4-CF3)]P[Ac5c][NMeNva(5,5-F2)][NMeD]-Piperidide; lactam N-11) the figure was greater than 500 nM; with `CC[C@H](C)[C@@H]1NC(=O)[C@H](CC(C)C)N(C)C(=O)C[C@@H](C(=O)N2CCCCC2)N(C)C(=O)[C@H](C2CCCCC2)N(C)C(=O)[C@@H](C(C)C)NC(=O)[C@@H]2CCCN2C(=O)[C@H](CCc2ccc(C(F)(F)F)c(Cl)c2)NC(=O)CN(C)C(=O)[C@H](CC2CCCCC2)N(C)C(=O)CN(C)C(=O)CN(C)C1=O` [Compound 1138] ([NMeL]I[Sar][Sar][NMeCha][Sar][hPhe(3-Cl-4-CF3)]P[dV][NMeChg][NMeD]-Piperidide; lactam N-11), greater than 500 nM; with `CC[C@H](C)[C@@H]1NC(=O)[C@H](CC(C)C)N(C)C(=O)C[C@@H](C)NC(=O)[C@H](C(C)C)N(C)C(=O)C2(CCCC2)NC(=O)[C@@H]2CCCN2C(=O)[C@H](CCc2ccc(C(F)(F)F)c(Cl)c2)NC(=O)CN(C)C(=O)[C@H](CC2CCCCC2)N(C)C(=O)CN(C)C(=O)CN(C(C)C)C1=O` [Compound 305] (cyclo([Ac5c][NMeV][d(β3hA)][NMeL]I[N(iPr)Gly][Sar][NMeCha][Sar][hPhe(3-Cl-4-CF3)]P)), greater than 500 nM. `CC[C@H](C)[C@@H]1NC(=O)[C@H](C)N(C)C(=O)C[C@@H](C(=O)N2CCCCC2)N(C)C(=O)[C@H](C(C)C)N(C)C(=O)C2(CCCC2)NC(=O)[C@@H]2CCCN2C(=O)[C@H](CCc2ccc(C(F)(F)F)c(Cl)c2)NC(=O)[C@@H](C)N(C)C(=O)[C@H](CC2CCCCC2)N(C)C(=O)CN(C)C(=O)CN(C)C1=O` [Compound 380] ([NMeA]I[Sar][Sar][NMeCha][dNMeA][hPhe(3-Cl-4-CF3)]P[Ac5c][NMeV][NMeD]-Piperidide; lactam N-11): the IC50 was greater than 500 nM. For `CC[C@H](C)[C@@H]1NC(=O)[C@H](CC(C)C)N(C)C(=O)C[C@@H](C)NC(=O)[C@H](C(C)C)N(C)C(=O)C2(CCCC2)NC(=O)[C@@H]2CCCN2C(=O)[C@H](CCc2ccc(C(F)(F)F)c(Cl)c2)NC(=O)CN(C)C(=O)[C@H](Cc2cccc(Cl)c2)N(C)C(=O)CN(C)C(=O)CN(C)C1=O` [Compound 1623] (cyclo([Ac5c][NMeV][d(β3hA)][NMeL]I[Sar][Sar][NMePhe(3-Cl)][Sar][hPhe(3-Cl-4-CF3)]P)) the value was greater than 500 nM; for `CC[C@H](C)[C@@H]1NC(=O)[C@H](CC(C)C)N(C)C(=O)C[C@@H](C(=O)N2CCCC2)NC(=O)[C@H](CC(C)C)N(C)C(=O)C(C)(C)NC(=O)[C@H](CC(C)C)N(C)C(=O)[C@H](CCc2ccc(C(F)(F)F)c(F)c2)NC(=O)CN(C)C(=O)[C@H](CCCCC(F)F)N(C)C(=O)CN(C)C(=O)CN(C)C1=O` [Compound 1455] ([NMeL]I[Sar][Sar][NMeNle(6-CHF2)][Sar][hPhe(3-F,4-CF3)][NMeL][Aib][NMeL]D-Pyrrolidide; lactam N-11), greater than 500 nM. On to `CC[C@H](C)[C@@H]1NC(=O)[C@H](CC(C)C)N(C)C(=O)C[C@@H](C(=O)N2CCCCC2)N(C)C(=O)[C@H](C2CCCCC2)N(C)C(=O)C2(CCCC2)NC(=O)[C@@H]2CCCN2C(=O)[C@H](CCc2ccc(C(F)(F)F)c(Cl)c2)NC(=O)CN(C)C(=O)[C@H](CC2CCCCC2)N(C)C(=O)CN(C)C(=O)[C@H](C)N(C)C1=O` [Compound 1345] ([NMeL]I[NMeA][Sar][NMeCha][Sar][hPhe(3-Cl-4-CF3)]P[Ac5c][NMeChg][NMeD]-Piperidide; lactam N-11), for which the IC50 was greater than 500 nM.
